Data reported in ChEMBL document CHEMBL3102714 (J Med Chem, 2013).
Calls of active or inactive are those of the source. The calls are words filed in the database; no cut-off is given here. Where a SMILES comes first, the peptide text is derived from it.

What was measured:
[1] = target: Nicotinic acetylcholine receptor alpha9/alpha10 (Rattus norvegicus) (UniProt P43144+Q9JLB5); assay: Inhibition of rat alpha9alpha10 nAChR expressed in Xenopus laevis oocytes assessed as inhibition of ACh-induced current at 10 uM after 2 to 4 days by voltage clamp electrophysiology method; assay type: cell-based
[2] = target: Neuronal acetylcholine receptor subunit alpha-7 (Rattus norvegicus) (UniProt Q05941); assay: Inhibition of rat alpha7 nAChR expressed in Xenopus laevis assessed as inhibition of ACh-induced current at 10 uM after 2 to 4 days by voltage clamp electrophysiology method
[3] = target: Neuronal acetylcholine receptor; alpha4/beta4 (Rattus norvegicus) (UniProt P09483+P12392); assay: Inhibition of rat alpha4beta4 nAChR expressed in Xenopus laevis oocytes assessed as inhibition of ACh-induced current at 10 uM after 2 to 4 days by voltage clamp electrophysiology method; assay type: cell-based
[4] = target: Neuronal acetylcholine receptor; alpha3/beta2 (Rattus norvegicus) (UniProt P04757+P12390); assay: Inhibition of rat alpha3beta2 nAChR expressed in Xenopus laevis oocytes assessed as inhibition of ACh-induced current at 10 uM after 2 to 4 days by voltage clamp electrophysiology method; assay type: cell-based
[5] = target: Neuronal acetylcholine receptor; alpha3/beta4 (Rattus norvegicus) (UniProt P04757+P12392); assay: Inhibition of rat alpha3beta4 nAChR expressed in Xenopus laevis oocytes assessed as inhibition of ACh-induced current at 1 uM after 2 to 4 days by voltage clamp electrophysiology method; assay type: cell-based
[6] = target: Neuronal acetylcholine receptor; alpha2/beta2 (Rattus norvegicus, UniProt P12389+P12390); assay: Inhibition of rat alpha2beta2 nAChR expressed in Xenopus oocytes assessed as inhibition of ACh-induced current by voltage clamp electrophysiology method; assay type: cell-based
[7] = target: Neuronal acetylcholine receptor subunit alpha-7 (Rattus norvegicus, UniProt Q05941); assay: Inhibition of rat alpha7 nAChR expressed in Xenopus oocytes assessed as inhibition of ACh-induced current by voltage clamp electrophysiology method; assay type: cell-based
[8] = target: Neuronal acetylcholine receptor; alpha2/beta4 (Rattus norvegicus, UniProt P12389+P12392); assay: Inhibition of rat alpha2beta4 nAChR expressed in Xenopus oocytes assessed as inhibition of ACh-induced current by voltage clamp electrophysiology method; assay type: cell-based
[9] = target: Neuronal acetylcholine receptor; alpha4/beta4 (Rattus norvegicus, UniProt P09483+P12392); assay: Inhibition of rat alpha4beta4 nAChR expressed in Xenopus oocytes assessed as inhibition of ACh-induced current by voltage clamp electrophysiology method; assay type: cell-based
[10] = target: T1, Neuronal acetylcholine receptor; alpha3/beta4 (Rattus norvegicus, UniProt P04757+P12392); assay: Inhibition of rat alpha3beta4 nAChR expressed in Xenopus oocytes assessed as inhibition of ACh-induced current by voltage clamp electrophysiology method; assay type: cell-based
[11] = target: Neuronal acetylcholine receptor; alpha3/beta2 (Rattus norvegicus, UniProt P04757+P12390); assay: Inhibition of rat alpha3beta2 nAChR expressed in Xenopus oocytes assessed as inhibition of ACh-induced current by voltage clamp electrophysiology method; assay type: cell-based
[12] = target: Nicotinic acetylcholine receptor alpha6/alpha3/beta4 (Rattus norvegicus, UniProt P04757+P12392+P43143); assay: Inhibition of rat alpha6/alpha3beta4 nAChR expressed in Xenopus oocytes assessed as inhibition of ACh-induced current by voltage clamp electrophysiology method; assay type: cell-based
[13] = target: T2, Nicotinic acetylcholine receptor alpha6/alpha3/beta2/beta3 (Rattus norvegicus, UniProt P04757+P12390+P12391+P43143); assay: Inhibition of rat alpha6/alpha3beta2beta3 nAChR expressed in Xenopus oocytes assessed as inhibition of ACh-induced current by voltage clamp electrophysiology method; assay type: cell-based
[14] = target: Nicotinic acetylcholine receptor alpha9/alpha10 (Rattus norvegicus, UniProt P43144+Q9JLB5); assay: Inhibition of recombinant rat alpha9alpha10 nAChR expressed in Xenopus laevis oocytes assessed as inhibition of ACh-induced current by voltage clamp electrophysiology method; assay type: cell-based
[15] = target: T1, Neuronal acetylcholine receptor; alpha3/beta4; assay: Inhibition of rat alpha3beta4 nAChR expressed in Xenopus laevis oocytes assessed as inhibition of ACh-induced current after 2 to 4 days by voltage clamp electrophysiology method; assay type: cell-based
[16] = target: T3, Neuronal acetylcholine receptor; alpha9/alpha10 (Homo sapiens, UniProt Q9GZZ6+Q9UGM1); assay: Inhibition of human alpha9alpha10 nAChR; assay type: protein-complex assay
[17] = target: T4, Neuronal acetylcholine receptor; alpha3/beta4 (Homo sapiens, UniProt P30926+P32297); assay: Inhibition of human alpha3beta4 nAChR; assay type: protein-complex assay
[18] = target: T5, Neuronal acetylcholine receptor; alpha3/beta2 (Homo sapiens, UniProt P17787+P32297); assay: Inhibition of human alpha3beta2 nAChR; assay type: protein-complex assay
[19] = target: T6, Neuronal acetylcholine receptor subunit alpha-7 (Homo sapiens, UniProt P36544); assay: Inhibition of human alpha7 nAChR
[20] = target: T6, Neuronal acetylcholine receptor subunit alpha-7; assay: Inhibition of alpha7 (unknown origin) nAChR
[21] = target: T3, Neuronal acetylcholine receptor; alpha9/alpha10; assay: Inhibition of alpha9alpha10 (unknown origin) nAChR; assay type: protein-complex assay
[22] = target: Neuronal acetylcholine receptor; alpha9/alpha10 (Homo sapiens) (UniProt Q9UGM1+Q9GZZ6); assay: Inhibition of alpha9alpha10 nAChR (unknown origin) expressed in Xenopus laevis oocytes at 1 uM by voltage clamp electrophysiology method; assay type: cell-based
[23] = target: T6, Neuronal acetylcholine receptor subunit alpha-7; assay: Inhibition of alpha7 nAChR (unknown origin) expressed in Xenopus laevis oocytes at 1 uM by two-electrode voltage clamp method; assay type: cell-based
[24] = target: T4, Neuronal acetylcholine receptor; alpha3/beta4; assay: Inhibition of alpha3beta4 nAChR (unknown origin) expressed in Xenopus laevis oocytes at 1uM by two-electrode voltage clamp method; assay type: cell-based
[25] = target: T5, Neuronal acetylcholine receptor; alpha3/beta2; assay: Inhibition of alpha3beta2 nAChR (unknown origin) expressed in Xenopus laevis oocytes at 1uM by two-electrode voltage clamp method; assay type: cell-based
[26] = target: T6, Neuronal acetylcholine receptor subunit alpha-7; assay: Inhibition of alpha7 nAChR (unknown origin) expressed in Xenopus laevis oocytes by two-electrode voltage clamp method; assay type: cell-based
[27] = target: T4, Neuronal acetylcholine receptor; alpha3/beta4; assay: Inhibition of alpha3beta4 nAChR (unknown origin) expressed in Xenopus laevis oocytes by two-electrode voltage clamp method; assay type: cell-based
[28] = target: T5, Neuronal acetylcholine receptor; alpha3/beta2; assay: Inhibition of alpha3beta2 nAChR (unknown origin) expressed in Xenopus laevis oocytes by two-electrode voltage clamp method; assay type: cell-based
[29] = target: T2, Nicotinic acetylcholine receptor alpha6/alpha3/beta2/beta3; assay: Inhibition of rat alpha6/alpha3beta2beta3 nAChR expressed in Xenopus laevis oocytes assessed as inhibition of ACh-induced current by voltage clamp electrophysiology method; assay type: cell-based

T6 sequence (P36544 whole entry): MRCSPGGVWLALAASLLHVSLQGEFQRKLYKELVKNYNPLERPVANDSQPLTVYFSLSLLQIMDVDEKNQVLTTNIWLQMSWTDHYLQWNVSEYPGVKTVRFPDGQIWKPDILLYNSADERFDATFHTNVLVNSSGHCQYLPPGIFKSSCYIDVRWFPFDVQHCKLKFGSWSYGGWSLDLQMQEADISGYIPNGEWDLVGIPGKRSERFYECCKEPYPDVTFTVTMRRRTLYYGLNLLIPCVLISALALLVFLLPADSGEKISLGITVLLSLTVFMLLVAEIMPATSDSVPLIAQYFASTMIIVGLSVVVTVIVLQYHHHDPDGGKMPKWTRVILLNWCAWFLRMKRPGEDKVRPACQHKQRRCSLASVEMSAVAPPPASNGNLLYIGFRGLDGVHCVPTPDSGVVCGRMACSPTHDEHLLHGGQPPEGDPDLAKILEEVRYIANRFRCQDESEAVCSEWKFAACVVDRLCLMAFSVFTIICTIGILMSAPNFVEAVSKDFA
T3 sequence (Q9UGM1 whole entry): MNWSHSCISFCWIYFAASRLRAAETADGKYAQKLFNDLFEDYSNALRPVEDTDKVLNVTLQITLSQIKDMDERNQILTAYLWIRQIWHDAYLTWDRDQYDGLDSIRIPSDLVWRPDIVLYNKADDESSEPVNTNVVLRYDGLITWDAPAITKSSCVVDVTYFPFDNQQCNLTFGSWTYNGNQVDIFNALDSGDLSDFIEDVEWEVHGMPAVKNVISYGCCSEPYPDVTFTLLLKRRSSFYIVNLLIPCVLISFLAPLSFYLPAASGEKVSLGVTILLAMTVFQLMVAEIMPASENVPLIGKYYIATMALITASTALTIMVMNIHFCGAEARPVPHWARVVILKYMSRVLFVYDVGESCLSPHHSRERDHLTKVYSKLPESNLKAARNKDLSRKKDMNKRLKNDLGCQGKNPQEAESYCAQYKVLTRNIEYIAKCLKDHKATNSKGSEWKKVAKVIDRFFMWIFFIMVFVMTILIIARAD
T3 sequence (Q9GZZ6 whole entry): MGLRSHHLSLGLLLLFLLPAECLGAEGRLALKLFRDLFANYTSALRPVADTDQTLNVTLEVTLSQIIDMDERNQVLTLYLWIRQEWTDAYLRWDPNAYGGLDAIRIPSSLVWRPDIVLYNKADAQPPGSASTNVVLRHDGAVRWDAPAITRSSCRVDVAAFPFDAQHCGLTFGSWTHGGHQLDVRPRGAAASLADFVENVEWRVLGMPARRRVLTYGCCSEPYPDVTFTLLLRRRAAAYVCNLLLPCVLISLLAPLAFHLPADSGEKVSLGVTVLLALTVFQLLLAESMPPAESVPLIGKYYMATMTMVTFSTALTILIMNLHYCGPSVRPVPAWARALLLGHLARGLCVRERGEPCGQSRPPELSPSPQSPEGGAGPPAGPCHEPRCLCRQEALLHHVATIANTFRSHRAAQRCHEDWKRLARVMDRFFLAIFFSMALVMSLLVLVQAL
T5 sequence (P17787 whole entry): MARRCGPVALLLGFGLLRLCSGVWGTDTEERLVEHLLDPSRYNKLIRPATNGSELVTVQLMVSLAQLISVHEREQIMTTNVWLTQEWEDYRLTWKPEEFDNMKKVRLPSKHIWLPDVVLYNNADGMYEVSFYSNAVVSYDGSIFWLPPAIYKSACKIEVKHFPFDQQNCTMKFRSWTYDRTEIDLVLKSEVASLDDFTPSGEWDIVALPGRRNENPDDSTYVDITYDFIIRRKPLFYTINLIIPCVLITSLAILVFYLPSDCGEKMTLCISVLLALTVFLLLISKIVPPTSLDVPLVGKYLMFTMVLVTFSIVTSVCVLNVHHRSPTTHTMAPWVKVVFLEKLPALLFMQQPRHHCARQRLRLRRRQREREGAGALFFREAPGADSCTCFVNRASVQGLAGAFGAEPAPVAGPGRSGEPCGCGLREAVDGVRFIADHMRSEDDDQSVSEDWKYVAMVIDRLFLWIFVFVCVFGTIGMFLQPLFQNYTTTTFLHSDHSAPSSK
T5 sequence (P32297 whole entry): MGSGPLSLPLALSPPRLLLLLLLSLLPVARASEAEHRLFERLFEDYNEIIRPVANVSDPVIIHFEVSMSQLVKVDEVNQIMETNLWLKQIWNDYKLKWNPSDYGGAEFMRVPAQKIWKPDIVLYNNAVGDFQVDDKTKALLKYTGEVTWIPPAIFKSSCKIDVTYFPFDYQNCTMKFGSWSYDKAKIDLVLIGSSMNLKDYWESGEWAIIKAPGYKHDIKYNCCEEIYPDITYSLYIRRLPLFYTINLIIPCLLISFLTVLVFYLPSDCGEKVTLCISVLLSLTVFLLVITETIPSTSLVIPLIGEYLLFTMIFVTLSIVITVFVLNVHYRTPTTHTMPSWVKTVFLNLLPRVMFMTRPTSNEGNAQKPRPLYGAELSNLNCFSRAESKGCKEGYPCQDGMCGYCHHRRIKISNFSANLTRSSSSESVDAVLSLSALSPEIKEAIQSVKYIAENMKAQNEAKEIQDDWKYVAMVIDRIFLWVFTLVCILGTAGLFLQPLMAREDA
T2 sequence (P04757 whole entry): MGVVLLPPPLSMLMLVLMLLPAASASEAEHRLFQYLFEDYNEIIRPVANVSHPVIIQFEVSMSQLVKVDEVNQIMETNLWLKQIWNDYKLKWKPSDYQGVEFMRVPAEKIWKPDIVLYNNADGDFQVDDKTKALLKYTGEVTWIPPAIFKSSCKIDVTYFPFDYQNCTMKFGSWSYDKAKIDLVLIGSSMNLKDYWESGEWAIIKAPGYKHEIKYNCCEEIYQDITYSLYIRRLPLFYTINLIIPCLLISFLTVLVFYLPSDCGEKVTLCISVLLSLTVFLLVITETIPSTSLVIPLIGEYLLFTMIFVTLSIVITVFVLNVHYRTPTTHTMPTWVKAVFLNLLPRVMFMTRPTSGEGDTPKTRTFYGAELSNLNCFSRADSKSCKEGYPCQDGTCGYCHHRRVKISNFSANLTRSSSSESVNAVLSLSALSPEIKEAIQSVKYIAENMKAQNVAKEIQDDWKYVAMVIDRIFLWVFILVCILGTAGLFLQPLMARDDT
T2 sequence (P12390 whole entry): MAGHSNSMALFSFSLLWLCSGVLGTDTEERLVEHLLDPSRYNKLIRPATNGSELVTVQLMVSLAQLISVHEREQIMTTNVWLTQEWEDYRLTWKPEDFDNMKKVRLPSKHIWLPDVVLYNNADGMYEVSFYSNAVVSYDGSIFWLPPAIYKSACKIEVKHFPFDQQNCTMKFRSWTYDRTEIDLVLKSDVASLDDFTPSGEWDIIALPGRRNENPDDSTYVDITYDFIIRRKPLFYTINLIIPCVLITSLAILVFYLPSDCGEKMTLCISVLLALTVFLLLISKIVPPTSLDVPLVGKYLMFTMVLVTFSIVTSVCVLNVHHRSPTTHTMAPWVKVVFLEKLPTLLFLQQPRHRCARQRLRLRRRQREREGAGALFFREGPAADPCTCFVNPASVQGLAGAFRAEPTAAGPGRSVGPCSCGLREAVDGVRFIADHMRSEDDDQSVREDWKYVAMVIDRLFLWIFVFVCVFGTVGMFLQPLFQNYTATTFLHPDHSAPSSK
T2 sequence (P12391 whole entry): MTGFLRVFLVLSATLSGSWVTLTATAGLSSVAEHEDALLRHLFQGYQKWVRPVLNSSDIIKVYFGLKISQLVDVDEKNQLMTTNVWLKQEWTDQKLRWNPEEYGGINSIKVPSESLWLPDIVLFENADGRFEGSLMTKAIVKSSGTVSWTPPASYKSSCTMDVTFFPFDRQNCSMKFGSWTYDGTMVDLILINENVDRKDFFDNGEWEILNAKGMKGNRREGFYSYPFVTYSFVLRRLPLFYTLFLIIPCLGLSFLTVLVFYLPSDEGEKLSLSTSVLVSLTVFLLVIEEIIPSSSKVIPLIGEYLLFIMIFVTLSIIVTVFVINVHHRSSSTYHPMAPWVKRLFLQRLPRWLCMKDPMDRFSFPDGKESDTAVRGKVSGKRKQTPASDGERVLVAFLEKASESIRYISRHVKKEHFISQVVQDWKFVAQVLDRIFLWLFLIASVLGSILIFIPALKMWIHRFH
T2 sequence (P43143 whole entry): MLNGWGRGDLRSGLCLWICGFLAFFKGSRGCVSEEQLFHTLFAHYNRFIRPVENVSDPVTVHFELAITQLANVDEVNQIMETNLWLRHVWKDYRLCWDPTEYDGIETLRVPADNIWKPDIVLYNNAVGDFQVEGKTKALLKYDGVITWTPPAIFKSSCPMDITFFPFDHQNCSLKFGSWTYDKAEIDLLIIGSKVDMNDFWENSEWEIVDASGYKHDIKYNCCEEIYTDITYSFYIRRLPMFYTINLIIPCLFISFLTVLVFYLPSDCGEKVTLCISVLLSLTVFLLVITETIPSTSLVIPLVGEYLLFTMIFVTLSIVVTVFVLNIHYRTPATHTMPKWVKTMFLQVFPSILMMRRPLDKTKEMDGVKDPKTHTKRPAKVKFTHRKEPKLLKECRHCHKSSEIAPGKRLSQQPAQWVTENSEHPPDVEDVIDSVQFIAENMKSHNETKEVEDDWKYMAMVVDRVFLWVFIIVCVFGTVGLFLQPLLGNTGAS
T1 sequence (P04757 whole entry): as the sequence (P04757 whole entry) above
T1 sequence (P12392 whole entry): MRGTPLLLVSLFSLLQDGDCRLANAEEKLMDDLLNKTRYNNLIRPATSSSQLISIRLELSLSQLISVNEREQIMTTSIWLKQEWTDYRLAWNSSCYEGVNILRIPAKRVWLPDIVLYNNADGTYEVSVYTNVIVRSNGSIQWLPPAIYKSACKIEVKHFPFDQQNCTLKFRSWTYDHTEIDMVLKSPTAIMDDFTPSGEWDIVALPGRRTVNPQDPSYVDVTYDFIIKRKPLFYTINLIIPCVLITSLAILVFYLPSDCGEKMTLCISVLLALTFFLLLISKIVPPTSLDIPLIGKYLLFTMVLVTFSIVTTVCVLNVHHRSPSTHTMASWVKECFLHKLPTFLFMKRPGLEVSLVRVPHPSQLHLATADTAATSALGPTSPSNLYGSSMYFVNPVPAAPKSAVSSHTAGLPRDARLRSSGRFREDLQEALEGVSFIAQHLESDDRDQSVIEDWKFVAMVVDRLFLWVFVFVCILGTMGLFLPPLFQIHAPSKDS

With CC[C@H](C)[C@@H]1NC(=O)[C@@H]2CCCN2C(=O)[C@H](CO)NC(=O)[C@H](CCSC)NC(=O)[C@H](C)NC(=O)[C@H](CO)NC(=O)[C@@H]2CSSC[C@H](NC(=O)CN)C(=O)N[C@@H](CSSC[C@@H](C(N)=O)NC1=O)C(=O)N[C@@H](CO)C(=O)N[C@@H](Cc1cnc[nH]1)C(=O)N1CCC[C@H]1C(=O)N[C@@H](C(C)C)C(=O)N2 the inhibition [1] was “inactive”, the inhibition [2] was “inactive” and the inhibition [3] was “inactive”. The inhibition [4] was “inactive” and the inhibition [5] was “Active”.
For [H][C@@]12CCCN1C(=O)[C@]1([H])CCCN1C(=O)[C@]([H])([C@@H](C)O)NC(=O)[C@H](CO)NC(=O)[C@]1([H])CSSC[C@@H](C(N)=O)NC(=O)[C@H](Cc3ccc(O)cc3)NC(=O)[C@H](CC(C)C)NC(=O)[C@H](C(C)C)NC(=O)[C@H](C)NC(=O)[C@]([H])(CSSC[C@H](NC(=O)CN)C(=O)N1)NC2=O (HELM PEPTIDE1{G.C.C.S.T.P.P.C.A.V.L.Y.C.[am]}$PEPTIDE1,PEPTIDE1,2:R3-8:R3|PEPTIDE1,PEPTIDE1,3:R3-13:R3$$$V2.0), the IC50 [6] was 800 nM, the IC50 [7] was 272 nM and the IC50 [8] was 121 nM. The IC50 [9] was 69.9 nM, the IC50 [10] was 27.7 nM and the IC50 [11] was 5.72 nM. The IC50 [12] was 1.54 nM and the IC50 [13] was 0.26 nM.
In the case of CC(C)C[C@@H]1NC(=O)[C@H](CCC(=O)O)NC(=O)[C@@H]2CCCN2C(=O)[C@H](Cc2cnc[nH]2)NC(=O)[C@H](CC(N)=O)NC(=O)[C@H](C(C)C)NC(=O)[C@H](CO)NC(=O)[C@@H]2CSSC[C@H](NC(=O)CN)C(=O)N[C@@H](CSSC[C@@H](C(N)=O)NC1=O)C(=O)N[C@@H](CO)C(=O)N[C@@H](Cc1cnc[nH]1)C(=O)N1CCC[C@H]1C(=O)N[C@@H](C)C(=O)N2 (HELM PEPTIDE1{G.C.C.S.H.P.A.C.S.V.N.H.P.E.L.C.[am]}$PEPTIDE1,PEPTIDE1,2:R3-8:R3|PEPTIDE1,PEPTIDE1,3:R3-16:R3$$$V2.0), the IC50 [14] is reported as 6.9 nM.
Work on C[C@@H]1NC(=O)[C@H](Cc2ccccc2)NC(=O)[C@@H]2CSSC[C@@H](NC(=O)CN)C(=O)N[C@@H](CSSC[C@@H](C(N)=O)NC(=O)[C@H](CC(=O)O)NC(=O)[C@@H]3CCCN3C(=O)[C@H](CC(N)=O)NC(=O)[C@H]([C@@H](C)O)NC1=O)C(=O)N[C@@H](CO)C(=O)N[C@@H](Cc1ccc(O)cc1)C(=O)N1CCC[C@H]1C(=O)N1CCC[C@H]1C(=O)N2 yielded an IC50 [15] of 750 nM.
C[C@@H]1NC(=O)[C@@H]2CSSC[C@H](NC(=O)CN)C(=O)N[C@@H](CSSC[C@@H](C(N)=O)NC(=O)[C@H](CCCNC(=N)N)NC(=O)[C@H](Cc3c[nH]c4ccccc34)NC1=O)C(=O)N[C@@H](CO)C(=O)N[C@@H](CC(=O)O)C(=O)N1CCC[C@H]1C(=O)N[C@@H](CCCNC(=N)N)C(=O)N2 was tested, and the IC50 [16] was 2000 nM, the IC50 [17] was 3390 nM and the IC50 [18] was 41 nM. For the same molecule, the IC50 [19] was 595 nM.
With NCC(=O)N[C@H]1CSSC[C@@H]2NC(=O)[C@H](CCCN=C(N)N)NC(=O)[C@@H]3CCCN3C(=O)[C@H](CC(=O)O)NC(=O)[C@H](CO)NC(=O)[C@H](CSSC[C@@H](C(=O)N[C@@H](CCCN=C(N)N)C(N)=O)NC(=O)[C@H](CCCN=C(N)N)NC(=O)[C@H](Cc3ccc(O)cc3)NC(=O)[C@H](CCCN=C(N)N)NC2=O)NC1=O the IC50 [20] was 4700 nM and the IC50 [21] was 5.2 nM.
CC[C@H](C)[C@@H]1NC(=O)[C@H](Cc2cnc[nH]2)NC(=O)[C@@H]2CCCN2C(=O)[C@H](CC(N)=O)NC(=O)[C@H](CC(N)=O)NC(=O)[C@H](C(C)C)NC(=O)[C@H](CC(N)=O)NC(=O)[C@@H]2CSSC[C@H](NC(=O)CN)C(=O)N[C@@H](CSSC[C@@H](C(N)=O)NC1=O)C(=O)N[C@@H](CO)C(=O)N[C@@H](Cc1cnc[nH]1)C(=O)N1CCC[C@H]1C(=O)N[C@@H](C)C(=O)N2 (HELM PEPTIDE1{G.C.C.S.H.P.A.C.N.V.N.N.P.H.I.C.[am]}$PEPTIDE1,PEPTIDE1,2:R3-8:R3|PEPTIDE1,PEPTIDE1,3:R3-16:R3$$$V2.0) was tested, and the inhibition [22] was 22%, the inhibition [23] was “Active” and the inhibition [24] was “Active”. For the same molecule, the inhibition [25] was “Active”, the IC50 [26] was 103 nM and the IC50 [27] was 97 nM. The IC50 [28] was 33 nM.
[H][C@@]12CCCN1C(=O)[C@H](Cc1cnc[nH]1)NC(=O)[C@H](CCCCN)NC(=O)[C@H](CC(N)=O)NC(=O)[C@H](CCCNC(=N)N)NC(=O)[C@]1([H])CSSC[C@H](NC(=O)CN)C(=O)N[C@@]([H])(CSSC[C@@H](C(N)=O)NC(=O)[C@H](CC(C)C)NC(=O)[C@H](CC(=O)O)NC2=O)C(=O)N[C@@H](CO)C(=O)N[C@@H](CC(=O)O)C(=O)N2CCC[C@@]2([H])C(=O)N2CCC[C@@]2([H])C(=O)N1 (HELM PEPTIDE1{G.C.C.S.D.P.P.C.R.N.K.H.P.D.L.C.[am]}$PEPTIDE1,PEPTIDE1,2:R3-8:R3|PEPTIDE1,PEPTIDE1,3:R3-16:R3$$$V2.0) gave an IC50 [29] of 28.4 nM.
